# From patent US12649751B2 (Arcus Biosciences, Inc., priority 2022, dated 2026)
# Like-named read-outs stand apart in the source and are kept apart here.
# Experiments:
# HPK1 = HPK1 (Homo sapiens, UniProt Q92918); assay: HPK1 Biochemical Assay (ADP-Glo luminescence; low ATP 10 μM or high ATP 200 μM)
# [1] = tested on: p-SLP-76 (Ser376) in Jurkat cells; assay: pSLP76 Cellular Assay (AlphaLISA SureFire Ultra p-SLP-76 (Ser376), anti-CD3 activated Jurkat cells); type: cell-based; conditions: Homo sapiens, read-out: Cellular Potency
# In short: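 Read-out is AlphaLISA p-SLP-76 (Ser376) signal at 570 nm in Jurkat lysates, with IC50 fitted by 4-parameter logistic. Cells were starved overnight, exposed 1 h at 37 °C to 22 twofold compound dilutions in HBSS, then activated 45 min with anti-CD3 (0.025 mg/ml stock added).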
# [2] = HPK1 ADP-Glo assay, high ATP (200 μM ATP, 5 nM HPK1), read-out: Biochemical Potency (high ATP)
# [3] = pSLP76 (Ser376) AlphaLISA, anti-CD3 activated Jurkat cells
# [4] = 2 nM HPK1, 10 μM ATP, read-out: Biochemical Potency (low ATP)
# [5] = Jurkat cells, anti-CD3 stimulation, pSLP76
# Chain of HPK1 (Q92918 whole entry, species assumed): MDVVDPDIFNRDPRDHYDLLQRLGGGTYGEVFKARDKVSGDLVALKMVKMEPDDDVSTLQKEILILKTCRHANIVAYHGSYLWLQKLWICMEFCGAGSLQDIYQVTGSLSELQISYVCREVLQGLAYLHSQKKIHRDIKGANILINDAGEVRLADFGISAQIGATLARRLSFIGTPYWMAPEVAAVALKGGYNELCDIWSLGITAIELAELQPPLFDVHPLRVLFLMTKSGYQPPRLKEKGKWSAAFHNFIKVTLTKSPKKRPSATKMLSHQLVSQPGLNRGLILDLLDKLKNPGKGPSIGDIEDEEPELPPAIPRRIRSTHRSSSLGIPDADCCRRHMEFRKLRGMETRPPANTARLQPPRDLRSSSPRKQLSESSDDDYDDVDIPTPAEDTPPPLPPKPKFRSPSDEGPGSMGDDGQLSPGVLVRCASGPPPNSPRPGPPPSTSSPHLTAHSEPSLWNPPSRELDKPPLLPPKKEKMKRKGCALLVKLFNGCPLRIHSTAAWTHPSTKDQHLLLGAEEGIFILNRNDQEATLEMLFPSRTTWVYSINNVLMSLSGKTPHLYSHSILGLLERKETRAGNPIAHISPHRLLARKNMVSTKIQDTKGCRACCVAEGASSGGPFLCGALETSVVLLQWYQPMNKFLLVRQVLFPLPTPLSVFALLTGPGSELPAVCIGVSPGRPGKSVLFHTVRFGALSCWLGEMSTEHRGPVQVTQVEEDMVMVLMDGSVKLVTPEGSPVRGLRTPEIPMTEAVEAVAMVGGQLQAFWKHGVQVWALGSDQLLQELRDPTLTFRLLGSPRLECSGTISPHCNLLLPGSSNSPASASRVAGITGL
IC50 (HPK1; [2]),"IC50 [1, 3]",IC50 (HPK1; [4]),"IC50 [1, 5]","IC50 (HPK1; HPK1 ADP-Glo assay, low ATP (10 μM ATP, 2 nM HPK1), read-out: Biochemical Potency (low ATP))",Compound
< 100 nM,100 to 1000 nM,–,–,–,Cc1cc(Nc2cc3nc(-c4cccc(C(=O)N(C)[C@@H](C)CO)c4)sc3cn2)nc(N2C[C@@H]3C[C@H]2CN3C)n1 [Example 561]
< 100 nM,100 to 1000 nM,–,–,–,Cc1cc(Nc2cc3nc(-c4cnn5c4CNCC5)sc3cn2)nc(N2C[C@@H]3C[C@H]2CN3C)n1 [Example 575]
< 100 nM,100 to 1000 nM,–,–,–,CO[C@@H]1CCN(c2cc(-c3nc4cc(Nc5cc(C)nc(N6C[C@@H]7C[C@H]6CN7CCO)n5)ncc4s3)ccn2)C1 [Example 453]
< 100 nM,< 100 nM,–,–,–,CCN1C[C@@H]2C[C@H]1CN2c1nc(C)cc(Nc2cc3nc(-c4cccc(C(=O)N5C[C@@H]6OCCO[C@@H]6C5)c4)sc3cn2)n1 [Example 529]
–,–,< 100 nM,< 100 nM,–,"CN1C[C@@H]2C[C@H]1CN2c1cccc(Nc2cc3nc(-c4nccn4C)sc3cn2)n1 [Example 108, N-[2-(1-Methyl-1H-imidazol-2-yl)-[1,3]thiazolo[5,4-c]pyridin-6-yl]-6-[(1S,4S)-5-methyl-2,5-diazabicyclo[2.2.1]heptan-2-yl]pyridin-2-amine]"
< 100 nM,100 to 1000 nM,–,–,–,Cc1cc(Nc2cc3nc(-c4ncc(C)o4)sc3cn2)nc(N2C[C@@H]3C[C@H]2CN3C)n1 [Example 373]
–,–,< 100 nM,100 to 1000 nM,–,"c1cncc(-c2nc3cc(Nc4ccc([C@@H]5CCOC5)c(CN5CCCC5)n4)ncc3s2)c1 (single isomer, unassigned) [Example 261, 5-[(3R or 3S)—Oxolan-3-yl]-N-[2-(pyridin-3-yl)-[1,3]thiazolo[5,4-c]pyridin-6-yl]-6-[(pyrrolidin-1-yl)methyl]pyridin-2-amine]"
–,–,< 100 nM,100 to 1000 nM,–,"Cc1cc(Nc2cc3nc(-c4ncccc4C)sc3cn2)nc(O[C@H]2CCNC2)c1 [Example 164, 4-Methyl-N-[2-(3-methylpyridin-2-yl)-[1,3]thiazolo[5,4-c]pyridin-6-yl]-6-[(3S)-pyrrolidin-3-yloxy]pyridin-2-amine]"
< 100 nM,100 to 1000 nM,–,–,–,CCN1C[C@@H]2C[C@H]1CN2c1nc(C)cc(Nc2cc3nc(-c4cccc(C(=O)NC5CCOCC5)c4)sc3cn2)n1 [Example 532]
< 100 nM,100 to 1000 nM,–,–,–,CCN1C[C@@H]2C[C@H]1CN2c1nc(C)cc(Nc2cc3nc(O[C@@H](C)c4ccccc4)sc3cn2)n1 [Example 483]
< 100 nM,< 100 nM,–,–,–,CCN1C[C@@H]2C[C@H]1CN2c1nc(C)cc(Nc2cc3nc(-c4cccc(C(=O)N5CCC(C)CC5)c4)sc3cn2)n1 [Example 517]
< 100 nM,< 100 nM,–,–,–,Cc1cc(-c2nc3cc(Nc4cc(C)nc(N5C[C@@H]6C[C@H]5CN6CCO)n4)ncc3s2)cc(N2CCCC2=O)c1 [Example 345]
< 100 nM,< 100 nM,–,–,–,CCN1C[C@@H]2C[C@H]1CN2c1nc(C)cc(Nc2cc3nc(-c4cccc(C(=O)N5CCC(F)CC5)c4)sc3cn2)n1 [Example 538]
< 100 nM,100 to 1000 nM,–,–,–,CCC(O)(CC)c1cc(-c2nc3cc(Nc4cc(C)nc(N5C[C@@H]6C[C@H]5CN6C)n4)ncc3s2)ccn1 [Example 387]
< 100 nM,< 100 nM,–,–,–,CCN1C[C@@H]2C[C@H]1CN2c1nc(C)cc(Nc2cc3nc(-c4cccc(C(=O)NC5CCOC5)c4)sc3cn2)n1 (stereo partly shown) [Example 556]
< 100 nM,100 to 1000 nM,–,–,–,Cc1cc(Nc2cc3nc(-c4ccnc(N5CCCOCC5)c4)sc3cn2)nc(N2C[C@@H]3C[C@H]2CN3CCO)n1 [Example 449]
100 to 1000 nM,5000 to 25000 nM,–,–,–,Cc1cc(Nc2cc3nc(-c4ccc5c(c4)S(=O)(=O)N(C)C5)sc3cn2)nc(N2C[C@@H]3C[C@H]2CN3C)n1 [Example 374]
< 100 nM,100 to 1000 nM,–,–,< 100 nM,CN1C[C@@H]2C[C@H]1CN2c1cncc(Nc2cc3nc(-c4cccc(C(C)(O)C(F)(F)F)c4)sc3cn2)n1 (stereo partly shown) [Example 410]
< 100 nM,100 to 1000 nM,–,–,–,Cc1cc(Nc2cc3nc(-c4cnn(CC5CC5)c4)sc3cn2)nc(N2C[C@@H]3C[C@H]2CN3CC(C)(C)O)n1 [Example 503]
< 100 nM,5000 to 25000 nM,–,–,–,Cc1cc(Nc2cc3nc(-c4ccn5nccc5c4)sc3cn2)nc(N2C[C@@H]3C[C@H]2CN3C)n1 [Example 377]

IC50 (HPK1; [2]),"IC50 [1, 3]",IC50 (HPK1; [4]),"IC50 [1, 5]","IC50 (HPK1; HPK1 ADP-Glo assay, low ATP (10 μM ATP, 2 nM HPK1), read-out: Biochemical Potency (low ATP))",Compound
–,–,< 100 nM,1000 to 5000 nM,–,"CC(C)(N)c1nc(Nc2cc3nc(-c4c(F)cccc4F)sc3cn2)ccc1N1CCC(F)(F)C1 [Example 271, 6-(2-Aminopropan-2-yl)-N-[2-(2,6-difluorophenyl)-[1,3]thiazolo[5,4-c]pyridin-6-yl]-5-(3,3-difluoropyrrolidin-1-yl)pyridin-2-amine]"
–,–,< 100 nM,1000 to 5000 nM,–,"Cc1cccnc1-c1nc2cc(Nc3ccc(C)c(N4CCC[C@H](N)C4)n3)ncc2s1 [Example 71, 6-[(3S)-3-Aminopiperidin-1-yl]-5-methyl-N-[2-(3-methylpyridin-2-yl)-[1,3]thiazolo[5,4-c]pyridin-6-yl]pyridin-2-amine]"
< 100 nM,< 100 nM,–,–,–,Cc1cc(Nc2cc3nc(-c4cnn(CC5CC5)c4)sc3cn2)nc(N2C[C@@H]3C[C@H]2CN3CCO)c1 [Example 348]
–,–,< 100 nM,1000 to 5000 nM,–,"Cc1ccc(Nc2cc3nc(-c4ccnnc4)sc3cn2)nc1CN1CCCC1 [Example 57, 5-Methyl-N-[2-(pyridazin-4-yl)-[1,3]thiazolo[5,4-c]pyridin-6-yl]-6-[(pyrrolidin-1-yl)methyl]pyridin-2-amine]"
–,–,< 100 nM,100 to 1000 nM,–,"Cc1cc(-c2nc3cc(Nc4ccc(C5CCOC5)c(CN5CCCC5)n4)ncc3s2)ccn1 (stereo not shown) [Example 253, N-[2-(2-Methylpyridin-4-yl)-[1,3]thiazolo[5,4-c]pyridin-6-yl]-5-(oxolan-3-yl)-6-[(pyrrolidin-1-yl)methyl]pyridin-2-amine]"
< 100 nM,< 100 nM,–,–,–,Cc1cc(Nc2cc3nc(-c4cccc(C(=O)N5CCC[C@@H]5C)c4)sc3cn2)nc(N2C[C@@H]3C[C@H]2CN3CCO)n1 [Example 548]
< 100 nM,< 100 nM,–,–,–,Cc1cc(Nc2cc3nc(-c4cnn(C5CC5)c4)sc3cn2)nc(N2C[C@@H]3C[C@H]2CN3CC2CC2)n1 [Example 364]
100 to 1000 nM,1000 to 5000 nM,–,–,–,"Cc1cc(Nc2cc3nc(-c4cccc5c4CCCN5S(C)(=O)=O)sc3cn2)nc(N2C[C@@H]3C[C@H]2CN3C)n1 [Example 312, N-[2-(1-methanesulfonyl-1,2,3,4-tetrahydroquinolin-5-yl)-[1,3]thiazolo[5,4-c]pyridin-6-yl]-6-methyl-2-[(1S,4S)-5-methyl-2,5-diazabicyclo[2.2.1]heptan-2-yl]pyrimidin-4-amine]"
< 100 nM,< 100 nM,–,–,–,CCN1C[C@@H]2C[C@H]1CN2c1nc(C)cc(Nc2cc3nc(-c4cnn(CC5CC5)c4)sc3cn2)n1 [Example 383]
< 100 nM,100 to 1000 nM,–,–,–,Cc1cc(Nc2cc3nc(-c4cnn(C(C)(C)C#N)c4)sc3cn2)nc(N2C[C@@H]3C[C@H]2CN3C)n1 [Example 371]
< 100 nM,5000 to 25000 nM,–,–,–,Cc1cc(Nc2cc3nc(-c4ccc5c(c4)CN(S(C)(=O)=O)CC5)sc3cn2)nc(N2C[C@@H]3C[C@H]2CN3C)n1 [Example 574]
< 100 nM,100 to 1000 nM,–,–,–,Cc1cc(Nc2cc3nc(-c4cccc(C(=O)N(C)C)c4)sc3cn2)nc(N2C[C@@H]3C[C@H]2CN3CCOC(C)C)n1 [Example 492]
–,–,< 100 nM,100 to 1000 nM,–,"Cc1cc(Nc2cc3nc(-c4c(C)cccc4F)sc3cn2)nc(O[C@H]2CCNC2)c1 [Example 178, N-[2-(2-Fluoro-6-methylphenyl)-[1,3]thiazolo[5,4-c]pyridin-6-yl]-4-methyl-6-[(3S)-pyrrolidin-3-yloxy]pyridin-2-amine]"
–,–,< 100 nM,> 5000 nM,–,"Cc1ccc(Nc2cc3nc(-c4ncccc4C)sc3cn2)nc1CN1CC[C@@H](C#N)C1 [Example 54, 6 (3R)-1-[(3-Methyl-6-{[2-(3-methylpyridin-2-yl)-[1,3]thiazolo[5,4-c]pyridin-6-yl]amino}pyridin-2-yl)methyl]pyrrolidine-3-carbonitrile]"
< 100 nM,100 to 1000 nM,–,–,–,Cc1cc(Nc2cc3nc(-c4cnn(CC5CCCCO5)c4)sc3cn2)nc(N2C[C@@H]3C[C@H]2CN3C)n1 (stereo partly shown) [Example 363]
–,–,< 100 nM,100 to 1000 nM,–,"Cc1cccc(F)c1-c1nc2cc(Nc3ccc(C4CCOC4)c(CN(C)C)n3)ncc2s1 (stereo not shown) [Example 255, 6-[(Dimethylamino)methyl]-N-[2-(2-fluoro-6-methylphenyl)-[1,3]thiazolo[5,4-c]pyridin-6-yl]-5-(oxolan-3-yl)pyridin-2-amine]"
< 100 nM,< 100 nM,–,–,–,Cc1cc(C(=O)N(C)C)cc(-c2nc3cc(Nc4cc(C)nc(N5C[C@@H]6C[C@H]5CN6CCO)n4)ncc3s2)c1 [Example 562]
–,–,< 100 nM,< 100 nM,–,"Cn1ccnc1-c1nc2cc(Nc3ccc(C4CCOCC4)c(CN4CCCC4)n3)ncc2s1 [Example 217, N-[2-(1-Methyl-1H-imidazol-2-yl)-[1,3]thiazolo[5,4-c]pyridin-6-yl]-5-(oxan-4-yl)-6-[(pyrrolidin-1-yl)methyl]pyridin-2-amine]"
< 100 nM,100 to 1000 nM,–,–,–,CCN(CC)C(=O)c1cccc(-c2nc3cc(Nc4cc(C)nc(N5C[C@@H]6C[C@H]5CN6CC)n4)ncc3s2)c1 [Example 342]
